{
  "source": "ChEMBL document CHEMBL1201862",
  "about": "“PubChem BioAssay data set” (2004)",
  "test_in_all_cases": "NCI tumour cell line growth inhibition, 48 h",
  "key": {"786-0": {"system": "786-0"}, "A498": {"system": "A498"}, "A549": {"system": "A549"}, "ACHN": {"system": "ACHN"}, "BT-549": {"system": "BT-549"}, "CAKI-1": {"system": "CAKI-1"}, "CCRF-CEM": {"system": "CCRF-CEM"}, "COLO 205": {"system": "COLO 205"}, "DU-145": {"system": "DU-145"}, "EKVX": {"system": "EKVX"}, "HCC 2998": {"system": "HCC 2998"}, "HCT-116": {"system": "HCT-116"}, "HCT-15": {"system": "HCT-15"}, "HL-60": {"system": "HL-60"}, "HOP-62": {"system": "HOP-62"}, "HOP-92": {"system": "HOP-92"}, "HT-29": {"system": "HT-29"}, "Hs-578T": {"system": "Hs-578T"}, "IGROV-1": {"system": "IGROV-1"}, "K562": {"system": "K562"}, "KM12": {"system": "KM12"}, "LOX IMVI": {"system": "LOX IMVI"}, "M14": {"system": "M14"}, "MCF7": {"system": "MCF7"}, "MDA-MB-231": {"system": "MDA-MB-231"}, "MDA-MB-435": {"system": "MDA-MB-435"}, "MDA-N": {"system": "MDA-N"}, "MOLT-4": {"system": "MOLT-4"}, "Malme-3M": {"system": "Malme-3M"}, "NCI-H226": {"system": "NCI-H226"}, "NCI-H23": {"system": "NCI-H23"}, "NCI-H460": {"system": "NCI-H460"}, "NCI/ADR-RES": {"system": "NCI/ADR-RES"}, "OVCAR-3": {"system": "OVCAR-3"}, "OVCAR-4": {"system": "OVCAR-4"}, "OVCAR-5": {"system": "OVCAR-5"}, "OVCAR-8": {"system": "OVCAR-8"}, "PC-3": {"system": "PC-3"}, "RPMI-8226": {"system": "RPMI-8226"}, "RXF 393": {"system": "RXF 393"}, "SF-268": {"system": "SF-268"}, "SF-295": {"system": "SF-295"}, "SF-539": {"system": "SF-539"}, "SK-MEL-28": {"system": "SK-MEL-28"}, "SK-MEL-2": {"system": "SK-MEL-2"}, "SK-MEL-5": {"system": "SK-MEL-5"}, "SK-OV-3": {"system": "SK-OV-3"}, "SN12C": {"system": "SN12C"}, "SNB-19": {"system": "SNB-19"}, "SNB-75": {"system": "SNB-75"}, "SW-620": {"system": "SW-620"}, "T47D": {"system": "T47D"}, "TK-10": {"system": "TK-10"}, "U-251": {"system": "U-251"}, "UACC-257": {"system": "UACC-257"}, "UACC-62": {"system": "UACC-62"}, "UO-31": {"system": "UO-31"}},
  "note": "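1) Cells in 96-well plates. 2) Compound, 48 h, 5 concentrations. 3) Linear interpolation between surrounding doses. 4) Unreached endpoint = highest concentration. At the GI50, growth is halved.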 Calls of active or inactive are those of the source. Cut-off read from the data, not from the text of the source: active = GI50 up to about 1.1 µM and inactive = higher.",
  "data": [
    {"smiles": "CC(C)=CCC/C(C)=C/CC/C(C)=C/CSc1ccc(Cl)cc1C(=O)O", "values": [
      {"measurement": "GI50", "setting": "786-0", "value": "17.1 µM (inactive)"},
      {"measurement": "GI50", "setting": "A498", "value": "19.8 µM (inactive)"},
      {"measurement": "GI50", "setting": "A549", "value": "16.5 µM (inactive)"},
      {"measurement": "GI50", "setting": "ACHN", "value": "18.5 µM (inactive)"},
      {"measurement": "GI50", "setting": "BT-549", "value": "20.2 µM (inactive)"},
      {"measurement": "GI50", "setting": "CAKI-1", "value": "25.1 µM (inactive)"},
      {"measurement": "GI50", "setting": "CCRF-CEM", "value": "21.2 µM (inactive)"},
      {"measurement": "GI50", "setting": "COLO 205", "value": "22.4 µM (inactive)"},
      {"measurement": "GI50", "setting": "DU-145", "value": "23.9 µM (inactive)"},
      {"measurement": "GI50", "setting": "EKVX", "value": "18.6 µM (inactive)"},
      {"measurement": "GI50", "setting": "HCC 2998", "value": "20.5 µM (inactive)"},
      {"measurement": "GI50", "setting": "HCT-116", "value": "17.8 µM (inactive)"},
      {"measurement": "GI50", "setting": "HCT-15", "value": 20.4, "unit": "µM"},
      {"measurement": "GI50", "setting": "HL-60", "value": "22.2 µM (inactive)"},
      {"measurement": "GI50", "setting": "HOP-62", "value": "14.9 µM (inactive)"},
      {"measurement": "GI50", "setting": "HOP-92", "value": "22.2 µM (inactive)"},
      {"measurement": "GI50", "setting": "HT-29", "value": "21.1 µM (inactive)"},
      {"measurement": "GI50", "setting": "Hs-578T", "value": "23.2 µM (inactive)"},
      {"measurement": "GI50", "setting": "IGROV-1", "value": "17.5 µM (inactive)"},
      {"measurement": "GI50", "setting": "K562", "value": "25.5 µM (inactive)"},
      {"measurement": "GI50", "setting": "KM12", "value": "17 µM (inactive)"},
      {"measurement": "GI50", "setting": "LOX IMVI", "value": "18.1 µM (inactive)"},
      {"measurement": "GI50", "setting": "M14", "value": "19.6 µM (inactive)"},
      {"measurement": "GI50", "setting": "MCF7", "value": "17.3 µM (inactive)"},
      {"measurement": "GI50", "setting": "MDA-MB-231", "value": "27 µM (inactive)"},
      {"measurement": "GI50", "setting": "MDA-MB-435", "value": "20.2 µM (inactive)"},
      {"measurement": "GI50", "setting": "MDA-N", "value": "29.4 µM (inactive)"},
      {"measurement": "GI50", "setting": "MOLT-4", "value": "23.1 µM (inactive)"},
      {"measurement": "GI50", "setting": "Malme-3M", "value": "19.2 µM (inactive)"},
      {"measurement": "GI50", "setting": "NCI-H226", "value": "17.4 µM (inactive)"},
      {"measurement": "GI50", "setting": "NCI-H23", "value": "17.7 µM (inactive)"},
      {"measurement": "GI50", "setting": "NCI-H460", "value": "18.7 µM (inactive)"},
      {"measurement": "GI50", "setting": "NCI/ADR-RES", "value": "> 10 µM (inactive)"},
      {"measurement": "GI50", "setting": "OVCAR-3", "value": "17 µM (inactive)"},
      {"measurement": "GI50", "setting": "OVCAR-4", "value": "27.7 µM (inactive)"},
      {"measurement": "GI50", "setting": "OVCAR-5", "value": "18.9 µM (inactive)"},
      {"measurement": "GI50", "setting": "OVCAR-8", "value": "20 µM (inactive)"},
      {"measurement": "GI50", "setting": "PC-3", "value": "16.2 µM (inactive)"},
      {"measurement": "GI50", "setting": "RPMI-8226", "value": "22.6 µM (inactive)"},
      {"measurement": "GI50", "setting": "RXF 393", "value": "24.3 µM (inactive)"},
      {"measurement": "GI50", "setting": "SF-268", "value": "17.9 µM (inactive)"},
      {"measurement": "GI50", "setting": "SF-295", "value": "17.4 µM (inactive)"},
      {"measurement": "GI50", "setting": "SF-539", "value": "18.9 µM (inactive)"},
      {"measurement": "GI50", "setting": "SK-MEL-28", "value": "17.3 µM (inactive)"},
      {"measurement": "GI50", "setting": "SK-MEL-2", "value": "15 µM (inactive)"},
      {"measurement": "GI50", "setting": "SK-MEL-5", "value": "23.4 µM (inactive)"},
      {"measurement": "GI50", "setting": "SK-OV-3", "value": "17.3 µM (inactive)"},
      {"measurement": "GI50", "setting": "SN12C", "value": "26.3 µM (inactive)"},
      {"measurement": "GI50", "setting": "SNB-19", "value": "18.4 µM (inactive)"},
      {"measurement": "GI50", "setting": "SNB-75", "value": "18.7 µM (inactive)"},
      {"measurement": "GI50", "setting": "SW-620", "value": "22 µM (inactive)"},
      {"measurement": "GI50", "setting": "T47D", "value": "> 10 µM (inactive)"},
      {"measurement": "GI50", "setting": "TK-10", "value": "19.2 µM (inactive)"},
      {"measurement": "GI50", "setting": "U-251", "value": "17.5 µM (inactive)"},
      {"measurement": "GI50", "setting": "UACC-257", "value": "27.8 µM (inactive)"},
      {"measurement": "GI50", "setting": "UACC-62", "value": "17.9 µM (inactive)"},
      {"measurement": "GI50", "setting": "UO-31", "value": "17.5 µM (inactive)"}
    ]}
  ]
}
